{"source": "patent US20080026996A1", "about": "“Selective Vpac2 Receptor Reptide Agonists” (ELI LILLY AND COMPANY, priority 2004, published 2008)", "note": "pEC50, pIC50: −log10 of the molar value. Where no end group is shown, it is not given here. [ ]: non-standard residue; d: D form. The star is where a group is joined. Hexanoyl = CCCCCC(=O)*; Aib = CC(C)(N)C(=O)O", "data": [{"biological_target": "T1, human VPAC2 (Homo sapiens, UniProt P41587)", "T1 construct": "expressed in transfected cells", "T1 sequence (P41587 24-438)": "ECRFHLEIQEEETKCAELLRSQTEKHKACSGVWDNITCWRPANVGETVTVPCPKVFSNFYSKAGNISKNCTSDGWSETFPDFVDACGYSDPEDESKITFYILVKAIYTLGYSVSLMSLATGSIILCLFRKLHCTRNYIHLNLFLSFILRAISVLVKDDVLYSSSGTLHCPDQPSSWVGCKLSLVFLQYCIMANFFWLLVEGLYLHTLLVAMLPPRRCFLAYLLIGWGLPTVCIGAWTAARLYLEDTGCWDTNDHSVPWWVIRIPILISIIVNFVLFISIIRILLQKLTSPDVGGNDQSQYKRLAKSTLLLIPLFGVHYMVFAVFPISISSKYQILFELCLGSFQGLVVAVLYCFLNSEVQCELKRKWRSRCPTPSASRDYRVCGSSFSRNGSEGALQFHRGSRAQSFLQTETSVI", "assay": "Alpha screen cAMP in vitro potency, human VPAC2 receptor", "type": "cell-based", "details": "cAMP generation; single result from two analyses performed in a single run; read-out: Human VPAC2 Receptor: Alpha Screen EC50", "outline": "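Dissociated cells, 50,000 per point in stimulation buffer, were incubated with stimuli and AlphaScreen acceptor beads for 60 min.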", "values": [{"substance": "Hexanoyl-HSDAVFTDNYTRLQ[Aib]QVAAKKYLQSIKNKRYGGPSSGAPPPS [Agonist P258]", "pEC50": 9.77}, {"substance": "Hexanoyl-HSDAVFTDNYTRLQ[Aib]QVAA[Aib]KYLQSIKNKRYGGPSSGAPPPS [Agonist P302]", "pEC50": 9.35}, {"substance": "Hexanoyl-HSDAVFTDNYTRLRAQLAAQKYLQSIKNKRYGGPSSGAPPPS [Agonist P142]", "pEC50": 9.82}, {"substance": "Hexanoyl-HSDAVFTDNYTRLRAQVAAKKYLQSIKNKRYGGPSSGAPPPS [Agonist P139]", "pEC50": 9.70}, {"substance": "Hexanoyl-HSDAVFTDNYTRLRAQVAAQKYLQSIKNKRYGGPSSGAPPPS [Agonist P138]", "pEC50": 9.35}, {"substance": "Hexanoyl-HSDAVFTDNYTRLRK(Ac)QVAAK(Ac)KYLQSIKNKRYGGPSSGAPPPS [Agonist P193]", "pEC50": 9.74}, {"substance": "Hexanoyl-HSDAVFTDNYTRLRK(Ac)QVAAKK(Ac)YLQSIKNKRYGGPSSGAPPPS [Agonist P194]", "pEC50": 9.89}]}, {"biological_target": "T2, human VPAC1 (Homo sapiens, UniProt P32241)", "T2 sequence (P32241 31-457)": "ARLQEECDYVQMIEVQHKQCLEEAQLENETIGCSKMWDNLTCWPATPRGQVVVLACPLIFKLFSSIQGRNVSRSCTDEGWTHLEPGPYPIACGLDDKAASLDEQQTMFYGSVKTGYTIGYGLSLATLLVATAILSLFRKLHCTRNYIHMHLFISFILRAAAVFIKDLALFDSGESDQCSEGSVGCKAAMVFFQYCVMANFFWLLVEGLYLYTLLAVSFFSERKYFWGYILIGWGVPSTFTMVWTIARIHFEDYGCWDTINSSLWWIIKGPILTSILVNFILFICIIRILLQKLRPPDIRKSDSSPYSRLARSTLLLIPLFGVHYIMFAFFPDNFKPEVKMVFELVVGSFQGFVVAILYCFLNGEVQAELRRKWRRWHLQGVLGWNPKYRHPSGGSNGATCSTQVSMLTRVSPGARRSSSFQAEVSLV", "assay": "Filter binding assay, membranes of cells transiently transfected with human VPAC1, 125I-labeled VIP tracer (Table 2)", "parameters": "expressed in transfected cells", "details": "read-out: Human VPAC1 Receptor Binding", "outline": "(§1)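 Membranes 2.5 μg/well; tracer ~40000 cpm; buffer 25 mM HEPES pH 7.4, 0.5% protease-free BSA; 1 h incubation, shaking. Glass-fibre filtration (0.5% polyethyleneamine presoak, 0.2% BSA block), 3× HEPES wash, dry 1 h at 60° C, scintillation count.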", "values": [{"substance": "Hexanoyl-HSDAVFTDNYTRLQ[Aib]QVAAKKYLQSIKNKRYGGPSSGAPPPS [Agonist P258]", "pIC50": "< 5.52"}, {"substance": "Hexanoyl-HSDAVFTDNYTRLQ[Aib]QVAA[Aib]KYLQSIKNKRYGGPSSGAPPPS [Agonist P302]", "pIC50": "< 5.52"}, {"substance": "Hexanoyl-HSDAVFTDNYTRLRAQLAAQKYLQSIKNKRYGGPSSGAPPPS [Agonist P142]", "pIC50": 6.44}, {"substance": "Hexanoyl-HSDAVFTDNYTRLRAQVAAKKYLQSIKNKRYGGPSSGAPPPS [Agonist P139]", "pIC50": 6.63}, {"substance": "Hexanoyl-HSDAVFTDNYTRLRAQVAAQKYLQSIKNKRYGGPSSGAPPPS [Agonist P138]", "pIC50": 8.28}, {"substance": "Hexanoyl-HSDAVFTDNYTRLRK(Ac)QVAAK(Ac)KYLQSIKNKRYGGPSSGAPPPS [Agonist P193]", "pIC50": 6.60}, {"substance": "Hexanoyl-HSDAVFTDNYTRLRK(Ac)QVAAKK(Ac)YLQSIKNKRYGGPSSGAPPPS [Agonist P194]", "pIC50": 6.76}]}, {"biological_target": "T3, human PAC1 (Homo sapiens, UniProt P41586)", "T3 sequence (P41586 21-468)": "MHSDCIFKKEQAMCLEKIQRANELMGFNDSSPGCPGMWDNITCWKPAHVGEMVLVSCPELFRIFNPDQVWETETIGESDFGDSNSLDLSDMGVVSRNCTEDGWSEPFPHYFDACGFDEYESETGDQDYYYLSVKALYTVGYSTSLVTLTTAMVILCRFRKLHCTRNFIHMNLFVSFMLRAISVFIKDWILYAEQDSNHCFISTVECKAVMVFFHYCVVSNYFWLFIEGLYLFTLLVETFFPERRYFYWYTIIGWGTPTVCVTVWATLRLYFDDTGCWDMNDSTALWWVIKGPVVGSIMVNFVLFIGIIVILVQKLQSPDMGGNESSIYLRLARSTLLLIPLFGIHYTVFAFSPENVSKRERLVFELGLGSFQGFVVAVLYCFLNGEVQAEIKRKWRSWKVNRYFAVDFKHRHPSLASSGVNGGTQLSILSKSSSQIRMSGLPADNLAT", "assay": "Filter binding assay, membranes of cells transiently transfected with human PAC1, 125I-labeled PACAP-27 tracer (Table 2)", "parameters": "expressed in transfected cells", "details": "read-out: Human PAC1 Receptor Binding", "outline": "as §1", "values": [{"substance": "Hexanoyl-HSDAVFTDNYTRLQ[Aib]QVAAKKYLQSIKNKRYGGPSSGAPPPS [Agonist P258]", "pIC50": "< 4.60"}, {"substance": "Hexanoyl-HSDAVFTDNYTRLQ[Aib]QVAA[Aib]KYLQSIKNKRYGGPSSGAPPPS [Agonist P302]", "pIC50": "< 4.60"}, {"substance": "Hexanoyl-HSDAVFTDNYTRLRAQLAAQKYLQSIKNKRYGGPSSGAPPPS [Agonist P142]", "pIC50": 5.92}, {"substance": "Hexanoyl-HSDAVFTDNYTRLRAQVAAKKYLQSIKNKRYGGPSSGAPPPS [Agonist P139]", "pIC50": "< 4.60"}, {"substance": "Hexanoyl-HSDAVFTDNYTRLRAQVAAQKYLQSIKNKRYGGPSSGAPPPS [Agonist P138]", "pIC50": 5.95}, {"substance": "Hexanoyl-HSDAVFTDNYTRLRK(Ac)QVAAK(Ac)KYLQSIKNKRYGGPSSGAPPPS [Agonist P193]", "pIC50": 6.27}, {"substance": "Hexanoyl-HSDAVFTDNYTRLRK(Ac)QVAAKK(Ac)YLQSIKNKRYGGPSSGAPPPS [Agonist P194]", "pIC50": 6.20}]}, {"biological_target": "T1, human VPAC2", "assay": "Filter binding assay, membranes of stable VPAC2 cell line, 125I-labeled VIP tracer (Table 2)", "details": "read-out: Human VPAC2 Receptor Binding", "outline": "as §1", "values": [{"substance": "Hexanoyl-HSDAVFTDNYTRLQ[Aib]QVAAKKYLQSIKNKRYGGPSSGAPPPS [Agonist P258]", "pIC50": 9.20}, {"substance": "Hexanoyl-HSDAVFTDNYTRLQ[Aib]QVAA[Aib]KYLQSIKNKRYGGPSSGAPPPS [Agonist P302]", "pIC50": 8.79}, {"substance": "Hexanoyl-HSDAVFTDNYTRLRAQLAAQKYLQSIKNKRYGGPSSGAPPPS [Agonist P142]", "pIC50": 9.24}, {"substance": "Hexanoyl-HSDAVFTDNYTRLRAQVAAKKYLQSIKNKRYGGPSSGAPPPS [Agonist P139]", "pIC50": 9.47}, {"substance": "Hexanoyl-HSDAVFTDNYTRLRAQVAAQKYLQSIKNKRYGGPSSGAPPPS [Agonist P138]", "pIC50": 9.00}, {"substance": "Hexanoyl-HSDAVFTDNYTRLRK(Ac)QVAAK(Ac)KYLQSIKNKRYGGPSSGAPPPS [Agonist P193]", "pIC50": 9.43}, {"substance": "Hexanoyl-HSDAVFTDNYTRLRK(Ac)QVAAKK(Ac)YLQSIKNKRYGGPSSGAPPPS [Agonist P194]", "pIC50": 9.55}]}, {"test_system": "not listed separately", "assay": "Rat serum stability studies (remaining active peptide by DiscoveRx cAMP on CHO-VPAC2 cells)", "type": "in vitro ADME", "details": "not given", "outline": "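EC50 from a DiscoveRx cAMP read-out on CHO-VPAC2 cells indexes how much peptide stays active after 18 h in rat serum at 37° C without aprotinin, against an aprotinin-protected 4° C aliquot.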", "units": {"Rat Serum Stability (estimated purity in % after 18 hours)": "%"}, "values": [{"substance": "Hexanoyl-HSDAVFTDNYTRLQ[Aib]QVAAKKYLQSIKNKRYGGPSSGAPPPS [Agonist P258]", "Rat Serum Stability (estimated purity in % after 18 hours)": 9.47}, {"substance": "Hexanoyl-HSDAVFTDNYTRLQ[Aib]QVAA[Aib]KYLQSIKNKRYGGPSSGAPPPS [Agonist P302]", "Rat Serum Stability (estimated purity in % after 18 hours)": 21.43}, {"substance": "Hexanoyl-HSDAVFTDNYTRLRAQLAAQKYLQSIKNKRYGGPSSGAPPPS [Agonist P142]", "Rat Serum Stability (estimated purity in % after 18 hours)": 0.51}, {"substance": "Hexanoyl-HSDAVFTDNYTRLRAQVAAKKYLQSIKNKRYGGPSSGAPPPS [Agonist P139]", "Rat Serum Stability (estimated purity in % after 18 hours)": 0.33}, {"substance": "Hexanoyl-HSDAVFTDNYTRLRAQVAAQKYLQSIKNKRYGGPSSGAPPPS [Agonist P138]", "Rat Serum Stability (estimated purity in % after 18 hours)": 0.48}, {"substance": "Hexanoyl-HSDAVFTDNYTRLRK(Ac)QVAAK(Ac)KYLQSIKNKRYGGPSSGAPPPS [Agonist P193]", "Rat Serum Stability (estimated purity in % after 18 hours)": 0.25}, {"substance": "Hexanoyl-HSDAVFTDNYTRLRK(Ac)QVAAKK(Ac)YLQSIKNKRYGGPSSGAPPPS [Agonist P194]", "Rat Serum Stability (estimated purity in % after 18 hours)": 1.11}]}]}
